How the values were obtained:
Type in all cases: functional, cell-based
Caco-2 = assay: Cytotoxicity against Homo sapiens (human) Caco2 cells after 48 hr by SRB assay; conditions: Caco-2, 48 h
THP-1 = assay: Cytotoxicity against Homo sapiens (human) THP1 cells after 48 hr by SRB assay; conditions: for IC50: THP-1, 48 h
PC-3 = assay: Cytotoxicity against Homo sapiens (human) PC3 cells after 48 hr by SRB assay; conditions: for IC50: PC-3, 48 h
A549 = assay: Cytotoxicity against Homo sapiens (human) A549 cells after 48 hr by SRB assay; conditions: for IC50: A549, 48 h

Compound	IC50 (Caco-2) [µM]	Activity (THP-1)	IC50 (THP-1) [µM]	Activity (PC-3)	IC50 (PC-3) [µM]	Activity (A549)	IC50 (A549) [µM]
COc1ccc2nc(NCCBr)sc2c1	47.9	Dose-dependent effect	110	Dose-dependent effect	100	Dose-dependent effect	> 100
Fc1ccc2nc(NCCCBr)sc2c1	93.7	Dose-dependent effect	0.9	Dose-dependent effect	2.5	Dose-dependent effect	> 100
Clc1cccc2sc(NCCBr)nc12	26.9	Dose-dependent effect	110	Dose-dependent effect	110	Dose-dependent effect	> 100
Fc1ccc2nc(NCCBr)sc2c1	16.8	Dose-dependent effect	1	Dose-dependent effect	9.9	Dose-dependent effect	67.6
Clc1cc2nc(NCCCBr)sc2cc1Cl	63	Dose-dependent effect	7	Dose-dependent effect	28	Dose-dependent effect	> 100
Cc1ccc2nc(NCCCBr)sc2c1	81.6	Dose-dependent effect	30.3	Dose-dependent effect	53.3	Dose-dependent effect	> 100
Clc1cccc2sc(NCCCBr)nc12	> 100	Dose-dependent effect	1.72	Dose-dependent effect	3.1	Dose-dependent effect	> 100
CO[C@@]12[C@H](COC(N)=O)C3=C(C(=O)C(C)=C(N)C3=O)N1C[C@@H]1N[C@@H]12 [MITOMYCIN]	–	Dose-dependent effect	1.5	Dose-dependent effect	–	Dose-dependent effect	0.4
O=c1[nH]cc(F)c(=O)[nH]1 [FLUOROURACIL]	21	Dose-dependent effect	–	Dose-dependent effect	–	Dose-dependent effect	–
Clc1ccc2nc(NCCCBr)sc2c1	33	Dose-dependent effect	60	Dose-dependent effect	62.8	Dose-dependent effect	> 100
Clc1ccc2nc(NCCBr)sc2c1	> 100	Dose-dependent effect	97.8	Dose-dependent effect	99	Dose-dependent effect	> 100
COc1ccc2nc(NCCCBr)sc2c1	9.9	Dose-dependent effect	3	Dose-dependent effect	0.6	Dose-dependent effect	89.9
Clc1cc2nc(NCCBr)sc2cc1Cl	8.4	Dose-dependent effect	8.46	Dose-dependent effect	24	Dose-dependent effect	85.5
CC(=O)O[C@H]1C(=O)[C@@]2(C)[C@H]([C@H](OC(=O)c3ccccc3)[C@]3(O)C[C@H](OC(=O)[C@H](O)[C@@H](NC(=O)c4ccccc4)c4ccccc4)C(C)=C1C3(C)C)[C@]1(OC(C)=O)CO[C@@H]1C[C@@H]2O	–	Dose-dependent effect	–	Dose-dependent effect	–	Dose-dependent effect	–
Cc1ccc2nc(NCCBr)sc2c1	67.7	Dose-dependent effect	39.9	Dose-dependent effect	40.9	Dose-dependent effect	> 100
